# According to PMC2730737 (Biochemistry, 2009):
# Positions count from the first letter of the chain named.
# Experiments:
# WT AdoMetDC = molecular target: T1, WT AdoMetDC (Homo sapiens, UniProt P17707); test: Stopped-flow intrinsic protein fluorescence binding kinetics, WT AdoMetDC; conditions: for intrinsic fluorescence change on rapid mixing with AdoMetDC: stopped-flow, excitation 298 nm, emission 340 nm
# T1 sequence (P17707 1-67 limits assumed): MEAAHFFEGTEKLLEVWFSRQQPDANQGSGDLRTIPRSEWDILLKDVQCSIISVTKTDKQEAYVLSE
# T1 sequence (P17707 68-334 limits assumed): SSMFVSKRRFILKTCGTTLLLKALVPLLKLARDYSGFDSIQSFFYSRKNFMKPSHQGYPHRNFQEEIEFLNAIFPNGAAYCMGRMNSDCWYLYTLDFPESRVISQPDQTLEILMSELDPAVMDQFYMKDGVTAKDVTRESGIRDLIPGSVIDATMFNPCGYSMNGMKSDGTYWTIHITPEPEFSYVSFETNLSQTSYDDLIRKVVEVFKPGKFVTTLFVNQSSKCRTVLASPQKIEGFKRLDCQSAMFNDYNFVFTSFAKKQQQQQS
# AdoMetDC = molecular target: T2, AdoMetDC (Homo sapiens, UniProt P17707); conditions: cited from earlier work
# T2 sequence (P17707 1-67 limits assumed): T1 sequence (P17707 1-67 limits assumed)
# T2 sequence (P17707 68-334 limits assumed): T1 sequence (P17707 68-334 limits assumed)
# [1] = modeling studies using NMR constraints, molecular mechanics; cited from earlier work
# AdoMetDC F223A mutant = molecular target: T3, AdoMetDC F223A mutant (Homo sapiens, UniProt P17707, F223A); test: Stopped-flow intrinsic protein fluorescence binding kinetics, F223A mutant; conditions: single exponential fit
# T3 sequence (P17707 1-67 limits assumed): T1 sequence (P17707 1-67 limits assumed)
# T3 sequence (P17707 68-334 F223A limits assumed): T1 sequence (P17707 68-334 limits assumed) with F156A
Compound,intrinsic fluorescence change on rapid mixing with AdoMetDC (WT AdoMetDC),IC50 (AdoMetDC) [µM],"k2 + k−2 (WT AdoMetDC; WT enzyme, hyperbolic fit of slow phase) [s⁻¹]","k−1 (WT AdoMetDC; WT enzyme, linear fit of fast phase, 25 °C, pH 7.5) [s⁻¹]",energy difference between the anti and syn conformations in solution [1] [kcal/mol],k1 (slope) (AdoMetDC F223A mutant),k−1 (y-intercept) (AdoMetDC F223A mutant) [s⁻¹]
"C[S+](C)C[C@H]1O[C@@H](n2cnc3c(N)ncnc32)[C@H](O)[C@@H]1O [MMTA, 5′-deoxy-5′-(dimethylsulfonio)adenosine]",too weak to measure,15,,,,,
"C[S+](CC[C@H](N)C(=O)[O-])C[C@H]1O[C@@H](n2cnc3c(N)ncnc32)[C@H](O)[C@@H]1O (stereo partly drawn) [AdoMet, S-adenosylmethionine]",intrinsic fluorescence change was observed,,3.7 ± 0.2,33 ± 2,-34,1.7 ± 0.3 × 10^−4 μM^−1s^−1,2.4 ± 0.2
"Nc1ncnc2c1ncn2[C@@H]1O[C@H](CSCC[C@H](N)C(=O)O)[C@@H](O)[C@H]1O [SAH, S-adenosylhomocysteine]",no significant change,,,,,,
